# Laboratory results: patent US6683027B2, “Herbicidal mixtures” (BASF Aktienegesellschaft, priority 2000, dated 2004)
# Experiments:
# Assay type in all cases: in vivo
# Alopecurus myosuroides [1] = experiment: greenhouse pre-emergence trial, percent damage vs untreated control 21 days after treatment; settings: ALOMY; for JV 485 alone (% control): Example 3
# Lamium purpureum [2] = experiment: as above; settings: LAMPU, Example 1A
# Lolium perenne [3] = experiment: as above; settings: 60 g/ha, LOLPE, Example 1A
# Papaver rhoeas [4] = experiment: as above; settings: 60 g/ha, PAPRH, Example 1A
# Setaria viridis [5] = experiment: as above; settings: SETVI, Example 1A
# Stellaria media [6] = experiment: as above; settings: 60 g/ha, STEME, Example 1A
# Veronica persica [7] = experiment: as above; settings: VERPE, Example 1A
# Galium aparine [8] = experiment: as above; settings: GALAP; for JV 485 alone (% control): Example 3
# Alopecurus myosuroides [9] = experiment: greenhouse post-emergence trial, percent damage vs untreated control 21 days after treatment; settings: ALOMY; for IPU alone (% control): Example 1B; for MCPA alone (% control): Example 4; for fenoxaprop alone (% control): Example 13; for flupyrsulfuron alone (% control): Example 5; for pendimethalin alone (% control): Example 14
# Experimental: (§1) The trials are carried out under greenhouse conditions in pre- and post-emergence applications. The plant seeds are sown in pots containing a loamy sand soil (0.5 l). The herbicides are applied as single treatments, or in a combination comprising a compound of formula I and compound selected from group (2) as defined above, before or after emergence of weeds and crop. The herbicidal performance is assessed as percent damage in comparison to the untreated control plants. The assessment is done 21 days after the treatment. Wheat and barley are treated at the 3-4 leaf stage, the broad-leaf weeds at the 2-4 leaf stage and annual grasses at the 2-3 leaf stage.
# Apera spica-venti = experiment: as above; settings: APESV; for cinidon-ethyl alone (% control): Example 10; for clodinafop alone (% control): Example 12; for mecoprop alone (% control): Example 7; for pendimethalin alone (% control): Example 14
# Experimental: as §1
# Lamium purpureum [10] = experiment: as above; settings: LAMPU; for MCPA alone (% control): Example 4; for clodinafop alone (% control): Example 12; for ioxynil alone (% control): Example 8; for mecoprop alone (% control): Example 7
# Experimental: as §1
# Lolium perenne [11] = experiment: as above; settings: LOLPE; for MCPA alone (% control): Example 4; for fenoxaprop alone (% control): Example 13; for mecoprop alone (% control): Example 7
# Experimental: as §1
# Papaver rhoeas [12] = experiment: as above; settings: PAPRH, Example 1B
# Experimental: as §1
# Setaria viridis [13] = experiment: as above; settings: SETVI; for IPU alone (% control): Example 1B; for MCPA alone (% control): Example 4; for carfentrazone alone (% control): Example 9; for cinidon-ethyl alone (% control): Example 10; for flupyrsulfuron alone (% control): Example 5
# Experimental: as §1
# Stellaria media [14] = experiment: as above; settings: STEME; for fenoxaprop alone (% control): Example 13
# Experimental: as §1
# Veronica persica [15] = experiment: as above; settings: VERPE, Example 1B
# Experimental: as §1
# Matricaria inodora = experiment: as above; settings: MATIN; for carfentrazone alone (% control): Example 9; for cinidon-ethyl alone (% control): Example 10
# Experimental: as §1
# Galium aparine [16] = experiment: as above; settings: GALAP; for clodinafop alone (% control): Example 12; for flupyrsulfuron alone (% control): Example 5
# Experimental: as §1
smiles,measurement,setting,value
CC(C)c1ccc(NC(=O)N(C)C)cc1 [IPU],IPU alone (% control),"Alopecurus myosuroides [1]; 60 g/ha, Example 1A",43%
same,IPU alone (% control),Lamium purpureum [2]; 60 g/ha,0%
same,IPU alone (% control),Lamium purpureum [2]; 120 g/ha,15%
same,IPU alone (% control),Lamium purpureum [2]; 240 g/ha,70%
same,IPU alone (% control),Lolium perenne [3],40%
same,IPU alone (% control),Papaver rhoeas [4],0%
same,IPU alone (% control),Setaria viridis [5]; 60 g/ha,0%
same,IPU alone (% control),Setaria viridis [5]; 120 g/ha,20%
same,IPU alone (% control),Setaria viridis [5]; 240 g/ha,65%
same,IPU alone (% control),Stellaria media [6],15%
same,IPU alone (% control),Veronica persica [7]; 60 g/ha,0%
same,IPU alone (% control),Veronica persica [7]; 120 g/ha,0%
same,IPU alone (% control),Veronica persica [7]; 240 g/ha,0%
same,IPU alone (% control),"Galium aparine [8]; 120 g/ha, Example 1A",0%
same,IPU alone (% control),Alopecurus myosuroides [9]; 60 g/ha,15%
same,IPU alone (% control),Alopecurus myosuroides [9]; 120 g/ha,38%
same,IPU alone (% control),"Apera spica-venti; 60 g/ha, Example 1B",50%
same,IPU alone (% control),"Lamium purpureum [10]; 60 g/ha, Example 1B",0%
same,IPU alone (% control),"Lolium perenne [11]; 60 g/ha, Example 1B",38%
same,IPU alone (% control),Papaver rhoeas [12]; 60 g/ha,0%
same,IPU alone (% control),Papaver rhoeas [12]; 120 g/ha,25%
same,IPU alone (% control),Papaver rhoeas [12]; 240 g/ha,48%
same,IPU alone (% control),Setaria viridis [13]; 60 g/ha,15%
same,IPU alone (% control),Setaria viridis [13]; 120 g/ha,40%
same,IPU alone (% control),"Stellaria media [14]; 60 g/ha, Example 1B",25%
same,IPU alone (% control),Veronica persica [15]; 60 g/ha,15%
same,IPU alone (% control),Veronica persica [15]; 240 g/ha,5%
"CC(C)OC(=O)c1cc(-c2nn(C)c(C(F)(F)F)c2Br)c(F)cc1Cl [JV 485, isopropyl 2-chloro-4-fluoro-5-(4-bromo-1-methyl-6-trifluoromethyl-pyrazol-3-yl)-benzoate, reference compound]",JV 485 alone (% control),Alopecurus myosuroides [1]; 30 g/ha,10%
same,JV 485 alone (% control),Alopecurus myosuroides [1]; 60 g/ha,25%
same,JV 485 alone (% control),Alopecurus myosuroides [1]; 120 g/ha,65%
same,JV 485 alone (% control),Galium aparine [8]; 60 g/ha,0%
same,JV 485 alone (% control),Galium aparine [8]; 120 g/ha,63%
"Cc1cc(Cl)ccc1OCC(=O)O [MCPA, reference compound]",MCPA alone (% control),Alopecurus myosuroides [9]; 120 g/ha,0%
same,MCPA alone (% control),Alopecurus myosuroides [9]; 240 g/ha,0%
same,MCPA alone (% control),Alopecurus myosuroides [9]; 480 g/ha,0%
same,MCPA alone (% control),"Apera spica-venti; 240 g/ha, Example 4",0%
same,MCPA alone (% control),Lamium purpureum [10]; 120 g/ha,0%
same,MCPA alone (% control),Lamium purpureum [10]; 240 g/ha,0%
same,MCPA alone (% control),Lamium purpureum [10]; 480 g/ha,13%
same,MCPA alone (% control),Lolium perenne [11]; 120 g/ha,0%
same,MCPA alone (% control),Lolium perenne [11]; 240 g/ha,10%
same,MCPA alone (% control),Setaria viridis [13]; 120 g/ha,25%
same,MCPA alone (% control),Setaria viridis [13]; 240 g/ha,43%
same,MCPA alone (% control),"Stellaria media [14]; 480 g/ha, Example 4",65%
"Cc1nn(-c2cc(CC(Cl)C(=O)O)c(Cl)cc2F)c(=O)n1C(F)F (stereo not shown) [carfentrazone, reference compound]",carfentrazone alone (% control),Matricaria inodora; 1.88 g/ha,0%
same,carfentrazone alone (% control),Matricaria inodora; 15 g/ha,48%
same,carfentrazone alone (% control),Setaria viridis [13]; 1.88 g/ha,0%
same,carfentrazone alone (% control),Setaria viridis [13]; 15 g/ha,0%
same,carfentrazone alone (% control),"Stellaria media [14]; 1.88 g/ha, Example 9",0%
"CCOC(=O)C(Cl)=Cc1cc(N2C(=O)C3=C(CCCC3)C2=O)ccc1Cl [cinidon-ethyl, reference compound]",cinidon-ethyl alone (% control),Apera spica-venti; 25 g/ha,0%
same,cinidon-ethyl alone (% control),Apera spica-venti; 50 g/ha,0%
same,cinidon-ethyl alone (% control),"Galium aparine [16]; 25 g/ha, Example 10",20%
same,cinidon-ethyl alone (% control),Matricaria inodora; 12.5 g/ha,53%
same,cinidon-ethyl alone (% control),Matricaria inodora; 25 g/ha,68%
same,cinidon-ethyl alone (% control),Setaria viridis [13]; 25 g/ha,0%
same,cinidon-ethyl alone (% control),Setaria viridis [13]; 50 g/ha,0%
"C[C@@H](Oc1ccc(Oc2ncc(Cl)cc2F)cc1)C(=O)O [clodinafop, reference compound]",clodinafop alone (% control),"Alopecurus myosuroides [9]; 7.5 g/ha, Example 12",10%
same,clodinafop alone (% control),Apera spica-venti; 15 g/ha,0%
same,clodinafop alone (% control),Apera spica-venti; 30 g/ha,15%
same,clodinafop alone (% control),Galium aparine [16]; 7.5 g/ha,0%
same,clodinafop alone (% control),Galium aparine [16]; 15 g/ha,0%
same,clodinafop alone (% control),Galium aparine [16]; 30 g/ha,0%
same,clodinafop alone (% control),Lamium purpureum [10]; 7.5 g/ha,0%
same,clodinafop alone (% control),Lamium purpureum [10]; 15 g/ha,0%
same,clodinafop alone (% control),"Lolium perenne [11]; 15 g/ha, Example 12",65%
"CC(Oc1ccc(Oc2nc3ccc(Cl)cc3o2)cc1)C(=O)O (stereo not shown) [fenoxaprop, reference compound]",fenoxaprop alone (% control),Alopecurus myosuroides [9]; 15 g/ha,0%
same,fenoxaprop alone (% control),Alopecurus myosuroides [9]; 30 g/ha,0%
same,fenoxaprop alone (% control),"Apera spica-venti; 30 g/ha, Example 13",58%
same,fenoxaprop alone (% control),Lolium perenne [11]; 15 g/ha,3%
same,fenoxaprop alone (% control),Lolium perenne [11]; 60 g/ha,43%
same,fenoxaprop alone (% control),"Matricaria inodora; 30 g/ha, Example 13",0%
same,fenoxaprop alone (% control),Stellaria media [14]; 30 g/ha,0%
same,fenoxaprop alone (% control),Stellaria media [14]; 60 g/ha,0%
"COc1cc(OC)nc(NC(=O)NS(=O)(=O)c2nc(C(F)(F)F)ccc2C(=O)O)n1 [flupyrsulfuron, reference compound]",flupyrsulfuron alone (% control),Alopecurus myosuroides [9]; 2.5 g/ha,35%
same,flupyrsulfuron alone (% control),Alopecurus myosuroides [9]; 5 g/ha,53%
same,flupyrsulfuron alone (% control),Alopecurus myosuroides [9]; 10 g/ha,73%
same,flupyrsulfuron alone (% control),"Apera spica-venti; 2.5 g/ha, Example 5",0%
same,flupyrsulfuron alone (% control),Galium aparine [16]; 5 g/ha,0%
same,flupyrsulfuron alone (% control),Galium aparine [16]; 10 g/ha,0%
same,flupyrsulfuron alone (% control),"Lolium perenne [11]; 10 g/ha, Example 5",10%
same,flupyrsulfuron alone (% control),Setaria viridis [13]; 2.5 g/ha,0%
same,flupyrsulfuron alone (% control),Setaria viridis [13]; 5 g/ha,10%
same,flupyrsulfuron alone (% control),Setaria viridis [13]; 10 g/ha,10%
N#Cc1cc(I)c(O)c(I)c1 [ioxynil],ioxynil alone (% control),"Apera spica-venti; 120 g/ha, Example 8",0%
same,ioxynil alone (% control),Lamium purpureum [10]; 60 g/ha,0%
same,ioxynil alone (% control),Lamium purpureum [10]; 120 g/ha,15%
same,ioxynil alone (% control),Lamium purpureum [10]; 240 g/ha,28%
same,ioxynil alone (% control),"Lolium perenne [11]; 240 g/ha, Example 8",0%
"Cc1cc(Cl)ccc1OC(C)C(=O)O (stereo not shown) [mecoprop, reference compound]",mecoprop alone (% control),Apera spica-venti; 240 g/ha,0%
same,mecoprop alone (% control),Apera spica-venti; 480 g/ha,0%
same,mecoprop alone (% control),Apera spica-venti; 960 g/ha,0%
same,mecoprop alone (% control),Lamium purpureum [10]; 240 g/ha,10%
same,mecoprop alone (% control),Lamium purpureum [10]; 480 g/ha,48%
same,mecoprop alone (% control),Lolium perenne [11]; 240 g/ha,0%
same,mecoprop alone (% control),Lolium perenne [11]; 480 g/ha,0%
same,mecoprop alone (% control),Lolium perenne [11]; 960 g/ha,0%
"CCC(CC)Nc1c([N+](=O)[O-])cc(C)c(C)c1[N+](=O)[O-] [pendimethalin, reference compound]",pendimethalin alone (% control),Alopecurus myosuroides [9]; 120 g/ha,0%
same,pendimethalin alone (% control),Alopecurus myosuroides [9]; 240 g/ha,15%
same,pendimethalin alone (% control),Apera spica-venti; 120 g/ha,5%
same,pendimethalin alone (% control),Apera spica-venti; 240 g/ha,40%
same,pendimethalin alone (% control),"Galium aparine [16]; 120 g/ha, Example 14",23%
same,pendimethalin alone (% control),"Setaria viridis [13]; 480 g/ha, Example 14",40%
"CCS(=O)(=O)c1nc2ccccn2c1S(=O)(=O)NC(=O)Nc1nc(OC)cc(OC)n1 [sulfosulfuron, reference compound]",sulfosulfuron alone (% control),"Lolium perenne [11]; 3.75 g/ha, Example 6",18%
